{"source": "patent US9393439B2", "about": "“Radiotherapy combined with hypoxic cell sensitizers” (IntraOp Medical Corporation, priority 2010, dated 2016)", "origin": "cited, not measured here", "conditions": "patients, single dose administration; above this level the incidence of side effects increases"}
{"smiles": "O=C(Cn1ccnc1[N+](=O)[O-])NCCO", "note": "[Etanidazole, etanidazole]", "values": [{"measurement": "maximum tolerated dose (dose that may safely be given)", "value": 12, "unit": "gm/m^2"}]}
